Laboratory results: publication PMC10285648, “iTAG an optimized IMiD-induced degron for targeted protein degradation in human and murine cells” (iScience, 2023)

How the values were obtained:
Assay type in all cases: cell-based, human
[1] = system: HMEC, HEK293T, MDA-MB-231, Kelly cells; assay: Cell viability assay (CellTiter-Blue); details: 5 days treatment
Experimental: By endpoint, CellTiter-Blue reagent (Promega) was added to each well, incubated for 3 h at 37°C and absorbance was measured with a plate reader at 570nm. Average background absorbance value was subtracted from all readings when plotting the viability curve.

[2] = system: N and C-terminally tagged KRAS^[G12V] and EZH2 (DCD23); assay: Flow cytometry of EGFP signal, DCD23-tagged KRAS G12V and EZH2 in HMEC; details: 10uM, 4h
Description: We tagged the proteins with DCD23 constructs, fused either to their N-terminus or C-terminus (Figures 2A and 2B). We stably transduced HMEC cells with these constructs and assessed their degradation. Cellular treatment with all degraders led to a decrease in the EGFP signal of the N and C-terminally tagged KRAS^[G12V] and EZH2 (Figures 2A and 2B).
Figure 2 Degradation of cytoplasmic and nuclear targets using iTAG (A) HMEC cells expressing N-terminally tagged DCD23-EGFP-KRAS^[G12V], DCD23-EGFP-EZH2, DCD23-EGFP-cMYC or their corresponding P2A control were induced with doxycycline for 24h then treated with either DMSO or the different indicated drugs at a concentration of 10uM for 4h. Median EGFP intensity was measured in each condition using flow cytometry and normalized values were represent in the Log2 Fold change relative to the DMSO control. […] Median EGFP intensity was measured in each condition using flow cytometry and normalized values were represent in the Log2 Fold Change relative to the DMSO control. […]
Cells stably transduced with the iTAG tagged constructs were treated with 1 μg/mL of doxycycline for 24h to induce constructs expression. […] EGFP signal was measured using BD LSR II flow cytometer (BD Biosciences). […]

DCD23-EGFP-KRAS^[G12V] = assay: Western blotting for KRAS G12V and p-MEK1(T292) in HMEC; details: 10uM, 48h
Experimental: Figure 2 Degradation of cytoplasmic and nuclear targets using iTAG (A) HMEC cells expressing N-terminally tagged DCD23-EGFP-KRAS^[G12V], DCD23-EGFP-EZH2, DCD23-EGFP-cMYC or their corresponding P2A control were induced with doxycycline for 24h then treated with either DMSO or the different indicated drugs at a concentration of 10uM for 4h. Median EGFP intensity was measured in each condition using flow cytometry and normalized values were represent in the Log2 Fold change relative to the DMSO control. (B) HMEC cells expressing Dox inducible C-terminally tagged KRAS^[G12V]-EGFP-DCD23, EZH2-EGFP-DCD23 or their corresponding P2A control were induced with doxycycline for 24h then treated with either DMSO or the different indicated drugs at a concentration of 10uM for 4h. Median EGFP intensity was measured in each condition using flow cytometry and normalized values were represent in the Log2 Fold Change relative to the DMSO control. […]
We then analyzed the functional consequences of KRAS^[G12V]-induced degradation. […] Subsequently, we analyzed the functional consequences of KRAS^[G12V]-induced degradation. […]
Cells were lysed with SDS lysis buffer (2% SDS, 10% Glycerol, 50mM Tris pH 6.8) and boiled at 95°C for 30min. Protein concentration was measured using Pierce BCA Protein Assay Kit (ThermoFischer) following manufacturer’s recommendations. […]

[3] = system: N-terminally tagged cMYC, RBM39, BRD4 (Flag-HA-DCD23 or Flag-HA-FKBP12^[F36V]); assay: Western blotting, iTAG versus dTAG fused proteins in SUM159; details: SUM159, dTAG-13 on dTAG, CC220 on iTAG
Experimental: The fusion constructs were stably expressed in SUM159 cells and loss of protein was determined by western blotting.
The protein lysates were probed for HA using western blotting. […] The protein lysates were probed for HA using western blotting. […] Median EGFP intensity was measured in each condition using flow cytometry. (3 independent experiments, represented as mean ± SD).
The dTAG system has also been adapted to direct targets to the E3 CRL2^VHL using the PROTAC dTAG^V-1^16. […] We evaluated the degradation N-terminally tagged cMYC and RBM39 dTAG^V-1, we included BRD4 as a control as it was reported to be a well degraded target in the initial dTAG optimization (Figure 3C).[15]
For the pHAGE-PGK constructs: DCD23, SuperDegron and FKBP12^F36V were separately cloned into a pHAGE-PGK DEST backbone. cDNA encoding the indicated protein was then cloned from pENTR221 into the pHAGE-PGK-DCD23, pHAGE-PGK-SuperDegron or pHAGE-PGK-FKBPF36V DEST vector using Gateway cloning. SUM159 cells were transduced with the indicated lentivirus and selected with puromycin.
Cells were lysed with SDS lysis buffer (2% SDS, 10% Glycerol, 50mM Tris pH 6.8) and boiled at 95°C for 30min. Protein concentration was measured using Pierce BCA Protein Assay Kit (ThermoFischer) following manufacturer’s recommendations. Samples were ran in NuPAGETM 10% Bis-Tris Midi electrophoresis gels (Invitrogen) using NuPAGETM MES SDS running buffer (ThermoFischer Scientific). Proteins were subsequently transferred to an Immobilon-P polyvinylidene Difluoride (PVDF) membrane (Merck Millipore) using the wet-transfer method (Bio-Rad) in a transfer buffer consisting of 20% (v/v) methanol and 10% protein electrophoresis buffer (24.77 mM Tris and 0.192 M glycine).
For western blotting membranes were blocked in a solution of 5% (w/v) bovine serum albumin (BSA; Sigma-Aldrich) dissolved in TBS-0.1% Tween 20 (Sigma-Aldrich) then incubated at 4°C overnight with the primary antibodies diluted in 5% (w/v) BSA/TBS-T. The membranes where then washed and incubated with anti-mouse and/or anti-rabbit secondary antibodies (LI-COR Biosciences) for 2h at RT diluted in 5% (w/v) BSA/TBS-T then washed and imaged using the LI-COR Odyssey (LI-COR Biosciences). Images were analyzed using Image Studio Lite software (LI-COR Biosciences).

In the case of `O=C1CC[C@H](N2Cc3c(OCc4ccc(CN5CCOCC5)cc4)cccc3C2=O)C(=O)N1` [CC220, Iberdomide], the cellular toxicity [1] is reported as “did not induce cellular toxicity”, the “change of EGFP signal” value [2] is reported as “most active degrader” and the “MEK1 (T292) phosphorylation after degradation of N-terminally tagged KRAS G12V” value (DCD23-EGFP-KRAS^[G12V]) is reported as “concomitant decrease in MEK1 (T292) phosphorylation”. For the same compound, the “concentrations at which targets are degraded” value [3] was 0.01 to 10 µM and the “time of onset of degradation of cMYC and RBM39” value ([3]; 1, 2 or 4h) was at most 1 h.
